Measurements reported in patent US7259236B2, “RBP1L1, a novel retinoblastoma binding protein-related gene encoding an antigenic epitope and methods of using thereof” (Regents of the University of California, priority 2001, dated 2007).

Key:
[1] = system: purified specific IgG binding to GST-RBP1L1 fusion protein; assay: Inhibition by synthetic peptides of purified specific IgG binding to GST-RBP1L1 fusion protein (Western blot); set-up: species or system human; settings: peptide 5 μg/ml, purified specific IgG 0.5 μg/ml, fusion protein from clone 151
Procedure: To determine the minimal number of amino acids necessary for antibody binding, synthetic peptides of various lengths were tested for their ability to inhibit the binding of purified specific IgG to GST-RBP1L1 fusion protein by Western blot analysis. The synthetic peptides tested were:
[…] The antigen and purified IgG mixture was agitated at 4° C. overnight, and the inhibition of antibody binding was assessed by Western blotting using GST-RBP1L1 fusion protein as the target antigen.
The minimum number of amino acids required for the antibody binding was determined by testing various truncated synthetic peptides in ELISAs and on Western blots. The following set of peptides was generated by sequentially reducing the 10-amino acid peptide by one amino acid from either the amino terminus or the carboxyl terminus:
(§1) The wells of a 96-well ELISA plate were coated with 100 μl of a peptide (5 μg/ml). The specific human IgG (200 μg/ml) was serially diluted from 1:250 to 1:4,000.

[2] = system: purified specific IgG; assay: ELISA with synthetic peptide antigens; type: binding, human; settings: ELISA and Western blot, truncated synthetic peptides; plate coated with 5 μg/ml peptide, IgG 200 μg/ml diluted 1:250 to 1:4,000
Procedure: The binding of purified specific IgG to synthetic peptides was assessed by ELISA. 96-well polystyrene plates (Reacti-Bind maleic anhydride-activated plates, Pierce) coated with each of the peptides (100 μl of 5 μg/ml) in PBS, incubated overnight at 4° C., and then blocked with 1% bovine serum albumin. Purified specific IgG (200 μg/ml) was serially diluted 1:250, 1:500, 1:1000, 1:2000, and 1:4000, then added in triplicate to peptide-coated wells (500 ng per well), and incubated for 3 hours at room temperature. Peroxidase-conjugated goat anti-human IgG (Pierce) was added at room temperature for 1 hour, followed by the addition of 400 μg/ml of o-phenylenediamine dihydrochloride in peroxide substrate solution. Reactivity was measured at 490 nm. Background absorbance without the primary antibody was subtracted from each sample's absorbance.
as §1

## IKPSLGSKK (listed as Homo sapiens)
[1]
  ability to competitively inhibit the binding of purified specific IgG to the GST-RBP1L1 fusion protein: completely inhibited
[2]
  epitope recognized by the purified specific human IgG: minimal epitope recognized

## IKPSLGSKKN (listed as Homo sapiens)
[1]
  ability to competitively inhibit the binding of purified specific IgG to the GST-RBP1L1 fusion protein: completely inhibited
